Experiments:
[1] = tested on: porcine pancreatic phospolipase A2; settings: Ripka et al., Journal of Cellular Biochemistry, 40, 279-286 (1989); cited from earlier work
[2] = biological target: PLA2 from Crotalus adamanteus (Crotalus adamanteus, UniProt P00623); assay: biochemical; parameters: species or system Crotalus adamanteus (snake venom)
[3] = Carrageenan Paw Edema Assay; assay type: in vivo, rat (male Sprague-Dawley); settings: 50 mg/kg, intraperitoneal, paw volume at three hours; n = 3
Procedure: The test procedure is as follows: male Caesarian-derived Sprague-Dawley rates from Charles River Laboratories are maintained on rat chow and water ad libidum and on a 12 hour light/12 hour dark cycle until they weight 160-210 grams.
One drop of Tween 80 per 10 ml of methylcellulose and 4 mm glass beads are added to each suspension. Each compound is bead-milled for one hour prior to use.
Dosing is intraperitioneal.
After dosing, all animals are given tap water so that the total volumes of fluid administered to each rat orally is 5.0 ml. This achieves uniform hydration of the rats and thus minimizes variability of the edematous response in the paw.
Sigma Type IV lambda carrageenan (Sigma Chemical Company, St. Louis, Mo., #C3889) is suspended in 0.9% sterile saline usually as a 1% solution (100 mg/10 ml). This preparation is bead-milled one hour prior to use. […]
Immediately following injection initial paw volume readings are taken, and then again three hours later using a Ugo Basile volume plethysmometer. The differences between the initial reading and the three hour reading is then calculated. Means; S.E.M. of these difference are determined for each group. The percent decrease from the control volumes are calculated using the following formula: [formula] Data are evaluated using the Student's t-test and p 0.05 is considered significant.

PLA2 from Crotalus adamanteus, sequence (P00623 17-138 limits assumed): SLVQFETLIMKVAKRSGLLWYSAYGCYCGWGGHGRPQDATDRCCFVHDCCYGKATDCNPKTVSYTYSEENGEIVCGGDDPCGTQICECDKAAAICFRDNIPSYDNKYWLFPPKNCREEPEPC

Row | SMILES | inhibitory activity against porcine pancreatic phospolipase A2 [1] | IC50 [2] | Carr. Paw Edemia Inhib. % [3]
1 | Oc1cccc(CC2CCc3ccccc32)c1 (stereo not drawn) | claimed to possess inhibitory activity | – | –
2 | O=CCc1cccc(CC2CCc3ccccc32)c1 (stereo not drawn) [Ex. 12, 3-(2',3'-Dihydroinden-1'-ylmethyl)-phenylacetaldehyde] | – | 2.4 µM | 51%
